These results are taken from ChEMBL document CHEMBL1201862, “PubChem BioAssay data set” (2004).

Assay [1] can be described thus: reduced cellular PGC1a acetyl-lysine signal – cell-based, cherry-picked samples, dose response (AID 720514).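 Note: potency may reflect raised or lowered acetylation signal.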 It is filed as functional.
A short description of assay [2]: inhibitors of non-replicating M. tuberculosis, dose response, luciferase, dry powder (AID 651619). It is filed as functional. The conditions noted are these: Mycobacterium tuberculosis.
Assay [3] in a line: CTGF mRNA reduction in DLD1 cells – cell-based, DLD1 colon cancer, RT-qPCR, cherry-pick, dose response (AID 1053122). The conditions noted are these: Cancer cell lines. It is filed as functional. In general terms: Real-time PCR tracks product formation cycle by cycle.
Assay [4] in a line: YAP1 overexpression rescue of CTGF inhibition – DLD1 cells, RT-qPCR, cherry-pick, mechanism study for YAP1 pathway inhibitor project, dose response (AID 1053127). In kind it is functional, cell-based. The conditions noted are these: DLD-1.
The nature of assay [5]: antimalarial activity against Dd2 parasites – SYBR Green fluorescence, erythrocytes, dry powder, set 2, dose response (AID 1159574). In kind it is functional, cell-based.
Assay [6] can be described thus: toxicity to A549 lung cells – cell-based, plate reader, dry powder, set 6, cytotoxicity control, dose response (AID 743312). It is filed as functional.
Assay [7] can be described thus: toxicity to HepG2 liver cells – cell-based, plate reader, dry powder, set 6, cytotoxicity control, dose response (AID 743311). In kind it is functional.
A short description of assay [8]: loss of HEK293T viability via ATP – cell-based, plate reader, dry powder, set 10, cytotoxicity control, dose response (AID 743315). It is filed as functional. The following applies: HEK293.
A further assay can be described thus: cells. The following applies: HEK293.
A short description of assay [9]: toxicity to human HepG2 hepatoma cells – cell-based, plate reader, dry powder samples, cytotoxicity control, dose response (AID 1159569).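 Note: inhibitor potency with signal falling toward the positive control level.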 In kind it is functional.
Assay [10] is described as follows: growth inhibition of PfATP4-mutant resistant parasites – NITD609-resistant line, SYBR Green, dry powder, dose response (AID 1159571).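 Note: parasites synchronized at ring stage by sorbitol before testing.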 In kind it is functional, cell-based.
Assay [11] can be described thus: Dd2 malaria parasite growth inhibition potency – SYBR Green, dry powder samples, dose response (AID 1159566).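 Note: potency for growth inhibition with lower SYBR green DNA signal.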 It is filed as functional, cell-based.
Assay [12] can be described thus: growth inhibition of yeast DHODH-expressing 3D7 parasites – SYBR Green, dry powder samples, dose response (AID 1159570).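 Note: parasite growth measured after 72 hours of compound exposure.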 It is filed as functional, cell-based.
The nature of assay [13]: CellTiter-Glo luminescence survival assay, SW480 colon tumor line, concentration-response curve, half-maximal inhibitory concentration (AID 1117338). It is filed as functional. (In general: ATP-based viability assays read luminescence as a measure of living cells.)
The nature of assay [14]: cytotoxicity toward Colo320 cells – cell-based, CellTiter-Glo luminescence, IC50, dose response (AID 1117334). In kind it is functional. The following applies: COLO 320.
Assay [15] can be described thus: Reduced DLD-1 viability, concentration-response, CellTiter-Glo luminescence (AID 1117352). In kind it is functional.
Assay [16] can be described thus: RKO cell viability reduction, dose response, CellTiter-Glo luminescence (AID 1117322). In kind it is functional.
A short description of assay [17]: SNU-C1 cell viability reduction, dose response, CellTiter-Glo luminescence (AID 1117323). In kind it is functional, cell-based.
Assay [18] is described as follows: cytotoxicity toward HCT116 cells – cell-based, CellTiter-Glo luminescence, IC50, dose response (AID 1117332). The following applies: HCT-116. It is filed as functional.
The nature of assay [19]: cytotoxicity toward HT-29 cells – cell-based, CellTiter-Glo luminescence, IC50, dose response (AID 1117330). In kind it is functional.

Where a name gives a salt, the structure may show the parent alone. Active and inactive are the calls of the source. Where only a bound is given, the exact number is not on record here.

The term AC50 denotes the concentration at which the activity in the assay is half-maximal. On to `C[C@H](CO)N1C[C@H](C)[C@@H](CN(C)CC2CCOCC2)Oc2ncc(Br)cc2C1=O`, for which the concentration at half-maximal activity (AC50) in assay [1] is 36.4 µM (active).

Usually IC90 stands for the concentration at which the effect reaches the 90% level. On to `[N-]=[N+]=NCCOCCNC(=O)CCCn1cc(C[S+]([O-])c2nnc(-c3ccc(F)cc3)o2)nn1` (stereo not given), for which the IC90 in assay [2] is 125 µM (active).

Regarding `COc1ccccc1C#Cc1ccc([C@@H]2[C@@H](CO)N3CCCCN(C(=O)C4CCC4)C[C@@H]23)cc1`, the AC50 in assay [3] is 15.9 µM (active); in assay [4], 17.7 µM (active).

For `COc1ccc2c3c([nH]c2c1)[C@@H](CO)N(C(C)=O)CC31CCN(C(=O)Nc2ccccc2F)CC1`, in assay [5], the concentration at half-maximal activity (AC50) was 2.48 µM (active).

With `Cc1cccc(OCCn2c(S)nc3cc(F)ccc32)c1`, the AC50 was 23.4 µM (active) in assay [6], 44.9 µM (active) in assay [7], > 52 µM (inactive) in [8] and > 52 µM (inactive) in “cells”.

Take `C[C@H]1CN([C@@H](C)CO)C(=O)c2c(c3ccccc3n2C)-c2ccccc2CO[C@H]1CN(C)S(=O)(=O)c1ccc(F)cc1`: the AC50 is 50.9 µM (active) in assay [9], 1.05 µM (active) in assay [10], 0.47 µM (active) in assay [11] and 0.819 µM (active) in [12].

For orientation: IC50 means the concentration needed to halve the response being measured. Consider `Cc1cccc(Cc2c[nH]cn2)c1C` [DETOMIDINE HYDROCHLORIDE], for which the IC50 in [13], in [14], in assay [15], in assay [16], in assay [17] and in assay [18] was > 20 µM (inactive) each time. Moreover, the IC50 in assay [19] was > 20 µM (inactive).
